Experimental data from ChEMBL document CHEMBL1201862, “PubChem BioAssay data set” (2004).
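A five-concentration, 48-hour dose response in 96-well plates underlies each endpoint, interpolated linearly between surrounding concentrations. The concentration for 50% growth inhibition is given as GI50.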 Active and inactive are the calls of the source. No stated cut-off is given here; in the data, active = GI50 up to about 1.1 µM and inactive = higher.

Assays:
Assay in all cases: growth of human tumour cells (NCI), 48 h
[1] = test system: HCT-116
[2] = test system: A549
[3] = test system: OVCAR-4
[4] = test system: 786-0
[5] = test system: SN12C
[6] = test system: UO-31
[7] = test system: HOP-92
[8] = test system: COLO 205
[9] = test system: LOX IMVI
[10] = test system: NCI-H23
[11] = test system: SK-OV-3
[12] = test system: NCI-H522
[13] = test system: PC-3
[14] = test system: CAKI-1
[15] = test system: LXFL 529
[16] = test system: SF-295
[17] = test system: OVCAR-3
[18] = test system: DU-145
[19] = test system: MDA-N
[20] = test system: NCI/ADR-RES

Measured: GI50

O=[N+]([O-])c1cccc2nc3ccccc3c(NCCO)c12
active: [1] 2.02 nM | [2] 3.4 nM | [3] 0.719 nM | [4] 3.15 nM | [5] 1.97 nM | [6] 2.44 nM | [7] 1.6 nM | [8] 1.67 nM | [9] 4.18 nM | [10] 1.94 nM | [11] 3.87 nM | [12] 2.48 nM | [13] 3.78 nM | [14] 3.23 nM | [15] 2.85 nM | [16] 4.67 nM | [17] 0.486 nM | [18] 3.6 nM | [19] 2 nM | [20] 5.66 nM
